According to patent US10898481B2 (priority 2018, dated 2021):

molecular target: hA2a/CHO (Homo sapiens (Human), UniProt P29274); test: cAMP inhibition assay in hA2a/CHO cells, 10 μM adenosine; type: cell-based; details: read-out: cAMP & FLIPR IC50 (nM) hA2a;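 also: compounds added to cells 30 min ahead of adenosine, then a further 30 min at 37 °C with adenosine before cAMP detection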
Sequence (P29274 whole entry): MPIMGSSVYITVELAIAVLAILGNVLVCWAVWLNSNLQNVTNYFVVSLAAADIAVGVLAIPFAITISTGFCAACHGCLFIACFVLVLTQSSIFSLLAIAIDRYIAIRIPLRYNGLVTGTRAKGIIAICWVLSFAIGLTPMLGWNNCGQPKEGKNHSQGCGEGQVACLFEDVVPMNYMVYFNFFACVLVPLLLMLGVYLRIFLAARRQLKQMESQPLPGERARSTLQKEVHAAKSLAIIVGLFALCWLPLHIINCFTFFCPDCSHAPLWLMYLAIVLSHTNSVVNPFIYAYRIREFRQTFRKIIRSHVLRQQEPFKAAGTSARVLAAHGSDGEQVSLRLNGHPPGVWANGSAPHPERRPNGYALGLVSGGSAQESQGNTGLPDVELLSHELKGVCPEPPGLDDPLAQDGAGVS
Protocol: hA2a/CHO, hA2b/CHO, hA3/CHO and mA2a/CHO (Genscript) were plated at 5×10^3 cells/well into 384-well polystyrene plates at the day of experiment. Compounds were pre-incubated with cells for 30 min at 37° C., 5% CO2. Then 10 μM adenosine was added to the cells and incubated for 30 min at 37° C., 5% CO2. Detection reagent (CISBIO) was added and the plates were incubated for 60 min at room temperature. The signal was captured by Envision.

Compared with `Cc1cnc2ccc(-c3nc(C(=O)NCC4CCCOC4)c(N)nc3-c3ncco3)cn12` (single isomer, unassigned; isomer 2) [Example 168, 3-amino-6-(3-methylimidazo[1,2-a]pyridin-6-yl)-5-(oxazol-2-yl)-N-((tetrahydro-2H-pyran-3-yl)methyl) pyrazine-2-carboxamide (isomer 2)], `COC1CCOC1CNC(=O)c1nc(-c2ccc3ncc(C)n3c2)c(-c2ncco2)nc1N` (single isomer, unassigned) [Example 280, 3-amino-N-((3-methoxytetrahydrofuran-2-yl)methyl)-6-(3-methylimidazo[1,2-a]pyridin-6-yl)-5-(oxazol-2-yl)pyrazine-2-carboxamide] is 1.8-fold lower in IC50: 1.1 nM for the first, 0.6 nM for the second.

Compared with `Cc1cnc2ccc(-c3nc(C(=O)NCC4OCC4(C)C)c(N)nc3-c3ncco3)cn12` (single isomer, unassigned; isomer 1) [Example 288, 3-amino-N-((3,3-dimethyloxetan-2-yl)methyl)-6-(3-methylimidazo[1,2-a]pyridin-6-yl)-5-(oxazol-2-yl)pyrazine-2-carboxamide (isomer 1)], `COC1CCOC1CNC(=O)c1nc(-c2ccc3ncc(C)n3c2)c(-c2ncco2)nc1N` (single isomer, unassigned) [Example 279, 3-amino-N-((3-methoxytetrahydrofuran-2-yl)methyl)-6-(3-methylimidazo[1,2-a]pyridin-6-yl)-5-(oxazol-2-yl)pyrazine-2-carboxamide] is 2.3-fold higher in IC50: 0.6 nM for the first, 1.4 nM for the second.

Going from `Cc1cnc2ccc(-c3nc(C(=O)NC[C@H]4CCCN4C)c(N)nc3-c3ccc(F)c(F)c3)cn12` [Cmpd. 272, 3-amino-5-(3,4-difluorophenyl)-6-[3-methylimidazo[1,2-a]pyridin-6-yl]-N-[[(2R)-1-methylpyrrolidin-2-yl]methyl]pyrazine-2-carboxamide] to `Cc1cnc2ccc(-c3nc(C(=O)NC[C@H]4CCCN4C)c(N)nc3-c3cccc(F)c3)cn12` [Cmpd. 231, (R)-3-amino-5-(3-fluorophenyl)-6-(3-methylimidazo[1,2-a]pyridin-6-yl)-N-((1-methylpyrrolidin-2-yl)methyl)pyrazine-2-carboxamide], the IC50 falls from 37 nM to 6.2 nM (6-fold). The second is the more potent here.

First: Cc1cnc2ccc(-c3nc(C(=O)NCc4ncccc4OCCO)c(N)nc3-c3ncco3)cn12 [Example 300, 3-amino-N-((3-(2-hydroxyethoxy)pyridin-2-yl)methyl)-6-(3-methylimidazo [1,2-a]pyridin-6-yl)-5-(oxazol-2-yl) pyrazine-2-carboxamide]
Second: CNC1CN(c2cccc(CNC(=O)c3nc(-c4ccc5ncc(C)n5c4)c(-c4ncco4)nc3N)n2)C1 [Example 303, 3-amino-N-((6-(3-(methylamino)azetidin-1-yl)pyridin-2-yl)methyl)-6-(3-methylimidazo[1,2-a]pyridin-6-yl)-5-(oxazol-2-yl)pyrazine-2-carboxamide]
The IC50 of the first is 2-fold higher: 0.8 nM for the first, 0.4 nM for the second. The second is the more potent here.

First: Cc1cnc2ccc(-c3nc(C(=O)NCc4cccc(N5CCC(N(C)C)CC5)n4)c(N)nc3-c3ncco3)cn12 [Example 302, 3-amino-N-((6-(4-(dimethylamino)piperidin-1-yl)pyridin-2-yl)methyl)-6-(3-methylimidazo[1,2-a]pyridin-6-yl)-5-(oxazol-2-yl)pyrazine-2-carboxamide]
Second: Cc1cnc2ccc(-c3nc(C(=O)NCc4cccc(N5CCN(C)C[C@@H]5C)n4)c(N)nc3-c3ncco3)cn12 [Example 287-2, (S)-3-amino-N-((6-(2,4-dimethylpiperazin-1-yl)pyridin-2-yl)methyl)-6-(3-methylimidazo[1,2-a]pyridin-6-yl)-5-(oxazol-2-yl)pyrazine-2-carboxamide]
The IC50 of the first is 1.8-fold lower: 2.4 nM for the first, 4.4 nM for the second.

Compared with `Cc1cnc2ccc(-c3nc(C(=O)NCC4CCCOC4)c(N)nc3-c3ncco3)cn12` (single isomer, unassigned; isomer 1) [Example 167, 3-amino-6-(3-methylimidazo[1,2-a]pyridin-6-yl)-5-(oxazol-2-yl)-N-((tetrahydro-2H-pyran-3-yl)methyl)pyrazine-2-carboxamide (isomer 1)], `Cc1cnc2ccc(-c3nc(C(=O)NCC4CCOC4)c(N)nc3-c3ccccn3)cn12` (single isomer, unassigned) [Example 305, 3-amino-6-[3-methylimidazo[1,2-a]pyridin-6-yl]-N-[[oxolan-3-yl]methyl]-5-(pyridin-2-yl)pyrazine-2-carboxamide] is 10-fold higher in IC50: 1.2 nM for the first, 12 nM for the second.

`Cc1cnc2ccc(-c3nc(CNC(=O)[C@H]4CCCN4C)c(N)nc3-c3ccc(F)c(F)c3)cn12` [Cmpd. 257, (2R)—N-[[3-amino-5-(3,4-difluorophenyl)-6-[3-methylimidazo[1,2-a]pyridin-6-yl]pyrazin-2-yl]methyl]-1-methylpyrrolidine-2-carboxamide] and `Cc1cnc2ccc(-c3nc(CNC(=O)[C@H]4CCCN4C)c(N)nc3-c3cc(F)cc(F)c3)cn12` [Example 291, (2R)—N-[[3-amino-5-(3,5-difluorophenyl)-6-[3-methylimidazo[1,2-a]pyridin-6-yl]pyrazin-2-yl]methyl]-1-methylpyrrolidine-2-carboxamide] are within 1.5-fold of each other in IC50: 1.5 nM for the first, 1.1 nM for the second.

`Cc1cnc2ccc(-c3nc(C(=O)NCc4cccc(N5C[C@@H]6C[C@H]5CN6C)n4)c(N)nc3-c3ncco3)cn12` [Example 283, 3-amino-N-((6-((lS,4S)-5-methyl-2,5-diazabicyclo[2.2.1]heptan-2-yl)pyridin-2-yl)methyl)-6-(3-methylimidazo[1,2-a]pyridin-6-yl)-5-(oxazol-2-yl)pyrazine-2-carboxamide] and `Cc1cnc2ccc(-c3nc(C(=O)NCc4cccc(N5C[C@H]6C[C@@H]5CN6C)n4)c(N)nc3-c3ncco3)cn12` [Example 282, 3-amino-N-((6-((1R,4R)-5-methyl-2,5-diazabicyclo[2.2.1]heptan-2-yl)pyridin-2-yl)methyl)-6-(3-methylimidazo[1,2-a]pyridin-6-yl)-5-(oxazol-2-yl) pyrazine-2-carboxamide] are within 1.5-fold of each other in IC50: 3.4 nM for the first, 4.5 nM for the second.

First: Cc1cnc2ccc(-c3nc(C(=O)N[C@@H](C)Cn4ccnn4)c(N)nc3-c3ncco3)cn12 [Example 296, (S)-N-(1-(lH-1,2,3-triazol-1-yl)propan-2-yl)-3-amino-6-(3-methylimidazo[1,2-a]pyridin-6-yl)-5-(oxazol-2-yl) pyrazine-2-carboxamide]
Second: Cc1cnc2ccc(-c3nc(C(=O)N[C@H](C)Cn4nccn4)c(N)nc3-c3ncco3)cn12 [Example 298, 3-amino-6-[3-methylimidazo[1,2-a]pyridin-6-yl]-5-(1,3-oxazol-2-yl)-N-[(2R)-1-(2H-1,2,3-triazol-2-yl)propan-2-yl]pyrazine-2-carboxamide]
The IC50 of the first is 52-fold lower: 0.9 nM for the first, 47 nM for the second. The first is the more potent here.

`Cc1cnc2ccc(-c3nc(C(=O)NCc4cccc(N5[C@@H]6CC[C@H]5CN(C)C6)n4)c(N)nc3-c3ncco3)cn12` [Cmpd. 172, 3-amino-N-[(6-[3-methyl-3,8-diazabicyclo[3.2.1]octan-8-yl]pyridin-2-yl)methyl]-6-[3-methylimidazo[1,2-a]pyridin-6-yl]-5-(1,3-oxazol-2-yl)pyrazine-2-carboxamide] and `Cc1cnc2ccc(-c3nc(C(=O)NCc4cccc(N5[C@@H]6C[C@H]5CN(C)C6)n4)c(N)nc3-c3ncco3)cn12` [Example 174, 3-amino-N-((6-(3-methyl-3,6-diazabicyclo[3.1.1]heptan-6-yl)pyridin-2-yl)methyl)-6-(3-methylimidazo[1,2-a]pyridin-6-yl)-5-(oxazol-2-yl)pyrazine-2-carboxamide] are within 1.5-fold of each other in IC50: 5.1 nM for the first, 6.9 nM for the second.

Compared with `Cc1cnc2ccc(-c3nc(C(=O)N[C@@H](C)Cn4nccn4)c(N)nc3-c3ncco3)cn12` [Example 297, 3-amino-6-[3-methylimidazo[1,2-a]pyridin-6-yl]-5-(1,3-oxazol-2-yl)-N-[(2S)-1-(2H-1,2,3-triazol-2-yl)propan-2-yl]pyrazine-2-carboxamide], `Cc1cnc2ccc(-c3nc(C(=O)NCC4OCC4(C)C)c(N)nc3-c3ncco3)cn12` (single isomer, unassigned; isomer 2) [Example 289, 3-amino-N-((3,3-dimethyloxetan-2-yl)methyl)-6-(3-methylimidazo[1,2-a]pyridin-6-yl)-5-(oxazol-2-yl)pyrazine-2-carboxamide (isomer 2)] is 9.5-fold higher in IC50: 0.2 nM for the first, 1.9 nM for the second.

First: COCCCNC(=O)c1nc(-c2ccc3ncc(C)n3c2)c(-n2nccn2)nc1N [Example 299, 3-amino-N-(3-methoxypropyl)-6-(3-methylimidazo[1,2-a]pyridin-6-yl)-5-(2H-1,2,3-triazol-2-yl)pyrazine-2-carboxamide]
Second: COC1CCCC(NC(=O)c2nc(-c3ccc4ncc(C)n4c3)c(-c3ncco3)nc2N)C1 (single isomer, unassigned; isomer 1) [Example 292, 3-amino-N-(3-methoxycyclohexyl)-6-(3-methylimidazo[1,2-a]pyridin-6-yl)-5-(oxazol-2-yl)pyrazine-2-carboxamide (isomer 1)]
The IC50 of the first is 12-fold higher: 4.9 nM for the first, 0.4 nM for the second. The second is the more potent here.

Going from `COC1CCCC(NC(=O)c2nc(-c3ccc4ncc(C)n4c3)c(-c3ncco3)nc2N)C1` (single isomer, unassigned; isomer 2) [Example 293, 3-amino-N-(3-methoxycyclohexyl)-6-(3-methylimidazo[1,2-a]pyridin-6-yl)-5-(oxazol-2-yl)pyrazine-2-carboxamide (isomer 2)] to `Cc1cnc2ccc(-c3nc(C(=O)NCc4cccc(N5CC6(CN(C)C6)C5)n4)c(N)nc3-c3ncco3)cn12` [Example 284, 3-amino-N-[(6-[6-methyl-2,6-diazaspiro[3.3]heptan-2-yl]pyridin-2-yl)methyl]-6-[3-methylimidazo[1,2-a]pyridin-6-yl]-5-(1,3-oxazol-2-yl)pyrazine-2-carboxamide], the IC50 rises from 0.4 nM to 0.7 nM (1.7-fold).

Molecule `COC1CCCC(NC(=O)c2nc(-c3ccc4ncc(C)n4c3)c(-c3ncco3)nc2N)C1` (single isomer, unassigned; isomer 3) [Example 294, 3-amino-N-(3-methoxycyclohexyl)-6-(3-methylimidazo[1,2-a]pyridin-6-yl)-5-(oxazol-2-yl)pyrazine-2-carboxamide (isomer 3)] has an IC50 of 0.2 nM.
With `COC1CCCC(NC(=O)c2nc(-c3ccc4ncc(C)n4c3)c(-c3ncco3)nc2N)C1` (single isomer, unassigned; isomer4) [Example 295, 3-amino-N-(3-methoxycyclohexyl)-6-(3-methylimidazo[1,2-a]pyridin-6-yl)-5-(oxazol-2-yl) pyrazine-2-carboxamide (isomer4)] the IC50 was 13 nM.
